Experimental data as given in patent publication US20230044787A1, “TRICYCLE DIHYDROIMIDAZOPYRIMIDONE DERIVATIVE, PREPARATION METHOD THEREOF, PHARMACEUTICAL COMPOSITION AND USE THEREOF” (priority 2019, published 2023).

These compounds were tested against T1, Lp-PLA2 (Homo sapiens, UniProt Q13093) (assay: Lipoprotein-associated phospholipase A2 (Lp-PLA2) human plasma assay (Thio-PAF assay)). Details: Comparison of activity data (I); pooled human plasma, 2-thio-PAF substrate, 30-min pre-incubation.
T1 construct: aliquoted and thawed 40 μL of pooled human plasma was previously added; from tissue; host or cells: pooled human plasma
T1 sequence (Q13093 22-441): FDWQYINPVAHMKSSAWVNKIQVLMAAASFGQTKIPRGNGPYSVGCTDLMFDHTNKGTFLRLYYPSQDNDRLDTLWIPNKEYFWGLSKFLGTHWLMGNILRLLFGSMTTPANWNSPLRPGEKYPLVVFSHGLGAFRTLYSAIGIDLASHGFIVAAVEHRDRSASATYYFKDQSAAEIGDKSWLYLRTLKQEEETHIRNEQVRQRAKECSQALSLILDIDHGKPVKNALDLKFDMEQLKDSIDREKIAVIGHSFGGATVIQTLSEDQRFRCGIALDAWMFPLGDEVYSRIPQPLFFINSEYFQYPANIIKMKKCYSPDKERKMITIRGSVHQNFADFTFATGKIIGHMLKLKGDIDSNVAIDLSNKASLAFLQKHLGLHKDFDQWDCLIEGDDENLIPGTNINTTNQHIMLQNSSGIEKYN
Assay type: biochemical
`O=c1nc(OCc2cc(F)c(F)c(F)c2)cc2n1CC13CCC(CC1)N23` [Example 52, 3-((3,4,5-trifluorobenzyl)oxy)-7,8-dihydro-1H,6H,9H-6,8a-ethanopyrrolo[1′,2′:3,4] imidazo[1,2-c]pyrimidin-1-one] showed an IC50 of 16 nM.
`O=c1nc(OCc2cc(F)c(F)c(F)c2)cc2n1CC1COCCN21` (racemic) [Corresponding racemate of Example 123 in WO2016011930A1, reference compound] gave an IC50 of 63.3 nM.

Same assay, conditions: Lp-PLA2 human plasma assay (Thio-PAF), pooled human plasma, 30-min pre-incubation at room temperature
Work on `Cn1cc(Oc2c(F)cc(COc3cc4n(c(=O)n3)CC35CC(CN43)C5)cc2F)cn1` [Example 94, 3-((3,5-difluoro-4-((1-methyl-1H-pyrazol-4-yl)oxy)benzyl)oxy)-7,8-dihydro-1H,6H,9H-7,8a-methanopyrrolo[1′,2′:3,4] imidazo[1,2-c]pyrimidin-1-one] yielded an IC50 of 92.7 nM.
Compound `N#Cc1cc(COc2cc3n(c(=O)n2)CC24CCC(CC2)N34)ccc1Oc1ccc(Cl)c(C(F)(F)F)c1` [Example 50, 5-(((1-oxo-7,8-dihydro-1H,6H,9H-6,8a-ethanopyrrolo[1′,2′:3,4]imidazo[1,2-c]pyrimidin-3-yl)oxy)methyl)-2-(4-chloro-3-(trifluoromethyl)phenoxy) benzonitrile] has an IC50 of 2.7 nM.
`O=c1nc(OCc2ccc(Oc3ccnc(C(F)(F)F)c3)c(F)c2)cc2n1CC13CCC(COC1)N23` (stereo not drawn) [Example 152, 7-((3-fluoro-4-((2-(trifluoromethyl)pyridin-4-yl)oxy)benzyl)oxy)-3,4-dihydro-1H,9H,11H-4,11a-ethanopyrimido[6′,1′:2,3] imidazo[5,1-c][1,4]oxazin-9-one] gave an IC50 of 3.9 nM.
For `Cn1ccc(CN2C(=O)[C@]34C[C@H]2CN3c2cc(OCc3ccc(Oc5ccnc(C(F)(F)F)c5)c(F)c3)nc(=O)n2C4)n1` [Example 197, (3S,11aR)-7-((3-fluoro-4-((2-(trifluoromethyl)pyridin-4-yl)oxy)benzyl)oxy)-2-((1-methyl-1H-pyrazol-3-yl)methyl)-3,4-dihydro-9H, 11H-3,11a-methanopyrazino[1′2′:3,4]imidazo [1,2-c]pyrimidin-1,9(2H)-dione], the IC50 was 2.9 nM.
Work on `O=c1nc(OCc2cc(F)c(Oc3ccc(Cl)c(F)c3)c(F)c2)cc2n1C[C@]13CO[C@H](CN21)C3` [Example 143] yielded an IC50 of 2.5 nM.
In the case of `CC12COCCN1c1cc(OCc3ccc(Oc4cc(C#N)cc(C(F)(F)F)c4)c(F)c3)nc(=O)n1C2` (stereo not drawn) [Example 83], the IC50 is reported as 4.9 nM.
Work on `O=c1nc(OCc2cc(F)c(F)c(F)c2)cc2n1CC13CCC(CC1)N23` [Example 52, 3-((3,4,5-trifluorobenzyl)oxy)-7,8-dihydro-1H,6H,9H-6,8a-ethanopyrrolo[1′,2′:3,4] imidazo[1,2-c]pyrimidin-1-one] yielded an IC50 of 16 nM.
`N#Cc1cc(COc2cc3n(c(=O)n2)C[C@@]24CO[C@@H](CN32)C4)ccc1Oc1ccc(C(F)(F)F)cc1` [Example 34, 5-((((3R,11aS)-9-oxo-3,4-dihydro-1H,9H,11H-3,11a-methanopyrimido[6′,1′:2,3]imidazo[5,1-c][1,4]oxazin-7-yl)oxy)methyl)-2-(4-(trifluoromethyl)phenoxy) benzonitrile] showed an IC50 of 3.6 nM.
In the case of `O=c1nc(OCCc2ccc(Oc3ccnc(C(F)(F)F)c3)c(F)c2)cc2n1CC13CC(CN21)C3` [Example 190, 3-(3-fluoro-4-((2-(trifluoromethyl)pyridin-4-yl)oxy)phenethoxy)-7,8-dihydro-1H,6H,9H-7,8a-methanopyrrolo[1′,2′:3,4]imidazo[1,2-c] pyrimidin-1-one], the IC50 is reported as 5.9 nM.
`Cn1cc(Oc2c(F)cc(COc3cc4n(c(=O)n3)CC35CCC(CC3)N45)cc2F)cn1` [Example 48, 3-((3,5-difluoro-4-((1-methyl-1H-pyrazol-4-yl)oxy)benzyl)oxy)-7,8-dihydro-1H,6H,9H-6,8a-ethanopyrrolo[1′,2′:3,4] imidazo[1,2-c]pyrimidin-1-one] was tested, and the IC50 was 62.8 nM.
With `O=c1nc(OCc2cc(F)c(Oc3ccnc(OC(F)(F)F)c3)c(F)c2)cc2n1CC13CC(CN21)C3` [Example 37, 3-((3,5-difluoro-4-((2-(trifluoromethoxy)pyridin-4-yl)oxy)benzyl)oxy)-7,8-dihydro-1H,6H,9H-7,8a-methanopyrrolo[1′,2′:3,4] imidazo[1,2-c]pyrimidin-1-one] the IC50 was 5.8 nM.
With `O=c1nc(OCc2cc(F)c(Oc3ccnc(C(F)(F)F)c3)c(F)c2)cc2n1CC13CCC(COC1)N23` (stereo not drawn) [Example 112, 7-((3,5-difluoro-4-((2-(trifluoromethyl)pyridin-4-yl)oxy)benzyl)oxy)-3,4-dihydro-1H,9H,11H-4,11a-ethanopyrimido[6′,1′:2,3] imidazo[5,1-c][1,4]oxazin-9-one] the IC50 was 5.1 nM.
`O=c1nc(OCc2ccc(Oc3ccc(Cl)c(C(F)(F)F)c3)c(F)c2)cc2n1C[C@]13CO[C@H](CN21)C3` [Example 14, (3S,11aR)-7-((4-(4-chloro-3-(trifluoromethyl)phenoxy)-3-fluorobenzyl)oxy)-3,4-dihydro-1H,9H,11H-3,11a-methanopyrimido[6′,1′:2,3] imidazo[5,1-c][1,4]oxazin-9-one] gave an IC50 of 4.6 nM.
For `CC12CCCCN1c1cc(OCc3ccc(Oc4ccc(Cl)c(C(F)(F)F)c4)c(C#N)c3)nc(=O)n1C2` (stereo not drawn) [Example 70, 2-(4-chloro-3-(trifluoromethyl)phenoxy)-5-(((-9a-methyl-1-oxo-6,7,8,9,9a,10-hexahydro-1H-pyrido[1′,2′:3,4]imidazo [1,2-c]pyrimidin-3-yl)oxy)methyl)benzonitrile], the IC50 was 6.9 nM.
Compound `O=c1nc(OCc2cc(F)c(Oc3cnc(C(F)(F)F)nc3)c(F)c2)cc2n1CC13CC(CN21)C3` [Example 39, 3-((3,5-difluoro-4-((2-(trifluoromethyl)pyrimidin-5-yl)oxy)benzyl)oxy)-7,8-dihydro-1H,6H,9H-7,8a-methanopyrrolo[1′,2′:3,4] imidazo[1,2-c]pyrimidin-1-one] has an IC50 of 13.8 nM.
In the case of `N#Cc1cc(COc2cc3n(c(=O)n2)C[C@]24CO[C@H](CN32)C4)ccc1Oc1ccc(Cl)c(C(F)(F)F)c1` [Example 18, 5-((((3S,11aR)-9-oxo-3,4-dihydro-1H,9H,11H-3,11a-methanopyrimido[6′,1′:2,3]imidazo[5,1-c][1,4]oxazin-7-yl)oxy)methyl)-2-(4-chloro-3-(trifluoromethyl)phenoxy) benzonitrile], the IC50 is reported as 3.5 nM.
`CCC12CCCCN1c1cc(OCc3cc(F)c(Oc4ccnc(C(F)(F)F)c4)c(F)c3)nc(=O)n1C2` (stereo not drawn) [Example 75, 3-((3,5-difluoro-4-((2-(trifluoromethyl)pyridin-4-yl)oxy)benzyl)oxy)-9a-ethyl-6,7,8,9,9a,10-hexahydro-1H-pyrido[1′,2′:3,4]imidazo [1,2-c]pyrimidin-1-one] showed an IC50 of 23.4 nM.
`CC12COCCN1c1cc(OCc3cc(F)c(Oc4ccc(Cl)c(C(F)(F)F)c4)c(F)c3)nc(=O)n1C2` (stereo not drawn) [Example 82, 7-((4-(4-chloro-3-(trifluoromethyl)phenoxy)-3,5-difluorobenzyl)oxy)-11a-methyl-3,4,11,11a-tetrahydro-1H,9H-pyrimido[6′,1′:2,3]imidazo [5,1-c][1,4]oxazin-9-one] gave an IC50 of 2 nM.
With `O=c1nc(OCc2cc(F)c(Oc3ccnc(C(F)(F)F)c3)c(F)c2)c(Cl)c2n1C[C@]13CO[C@H](CN21)C3` [Example 91, (3S,11aR)-7-((3,5-difluoro-4-((2-(trifluoromethyl)pyridin-4-yl)oxy)benzyl)oxy)-6-chloro-3,4-dihydro-1H,9H,11H-3,11a-methanopyrimido[6′,1′:2,3] imidazo[5,1-c][1,4]oxazin-9-one] the IC50 was 4.8 nM.
Work on `O=c1nc(OCc2ccc(Oc3ccnc(C(F)(F)F)c3)cc2)cc2n1CC13CC(CN21)C3` [Example 109, 3-((4-((2-(trifluoromethyl)pyridin-4-yl)oxy)benzyl)oxy)-7,8-dihydro-1H,6H,9H-7,8a-methanopyrrolo[1′,2′:3,4] imidazo[1,2-c]pyrimidin-1-one] yielded an IC50 of 14 nM.
With `O=c1nc(OCc2ccc(Oc3ccnc(C(F)(F)F)c3)c(F)c2)cc2n1CC13CCC(CC1)N23` [Example 149, 3-((3-fluoro-4-((2-(trifluoromethyl)pyridin-4-yl)oxy)benzyl)oxy)-7,8-dihydro-1H,6H,9H-6,8a-ethanopyrrolo[1′,2′:3,4] imidazo[1,2-c]pyrimidin-1-one] the IC50 was 4.1 nM.
In the case of `CC12CCCCN1c1cc(OCc3ccc(Oc4cccc(C(F)(F)F)c4)c(C#N)c3)nc(=O)n1C2` (stereo not drawn) [Example 71, 5-(((-9a-methyl-1-oxo-6,7,8,9,9a,10-hexahydro-1H-pyrido[1′,2′:3,4]imidazo [1,2-c]pyrimidin-3-yl)oxy)methyl)-2-(3-(trifluoromethyl)phenoxy) benzonitrile], the IC50 is reported as 7.9 nM.
For `O=c1nc(OCc2ccc(Oc3ccnc(C(F)(F)F)c3)c(F)c2)cc2n1CC13CCC(CC1)N23` [Example 118, 3-((3-fluoro-4-((2-(trifluoromethyl)pyridin-4-yl)oxy)benzyl)oxy)-7,8-dihydro-1H,6H,9H-6,8a-ethanopyrrolo[1′,2′:3,4] imidazo[1,2-c]pyrimidin-1-one], the IC50 was 6 nM.
With `O=c1nc(OCc2ccc(Oc3ccnc(C(F)(F)F)c3)cc2F)cc2n1CC13CC(CN21)C3` [Example 105, 3-((2-fluoro-4-((2-(trifluoromethyl)pyridin-4-yl)oxy)benzyl)oxy)-7,8-dihydro-1H,6H,9H-7,8a-methanopyrrolo[1′,2′:3,4] imidazo[1,2-c]pyrimidin-1-one] the IC50 was 10.8 nM.
`Cc1c(OCc2ccc(Oc3ccnc(C(F)(F)F)c3)cc2)nc(=O)n2c1N1C[C@@H]3C[C@]1(CO3)C2` [Example 108, (3S,11aR)-7-((4-((2-(trifluoromethyl)pyridin-4-yl)oxy)benzyl)oxy)-6-methyl-3,4-dihydro-1H,9H,11H-3,11a-methanopyrimido[6′,1′:2,3] imidazo[5,1-c][1,4]oxazin-9-one] was tested, and the IC50 was 5 nM.
